Data: ChEMBL document CHEMBL4138146, “A Schmidt rearrangement-mediated synthesis of novel tetrahydro-benzo[1,4]diazepin-5-ones as potential anticancer and antiprotozoal agents” (Eur J Med Chem, 2017)

Key:
Format in all cases: functional
CCRF-CEM = test: Growth inhibition of human CCRF-CEM cells incubated for 48 hrs by sulforhodamine B assay
HL-60(TB) = test: Growth inhibition of human HL-60(TB) cells incubated for 48 hrs by sulforhodamine B assay; details: HL-60, 48 h
MOLT-4 = test: Growth inhibition of human MOLT4 cells incubated for 48 hrs by sulforhodamine B assay; details: MOLT-4, 48 h
EKVX = test: Growth inhibition of human EKVX cells incubated for 48 hrs by sulforhodamine B assay
HOP-62 = test: Growth inhibition of human HOP62 cells incubated for 48 hrs by sulforhodamine B assay; details: HOP-62, 48 h
HOP-92 = test: Growth inhibition of human HOP92 cells incubated for 48 hrs by sulforhodamine B assay; details: HOP-92, 48 h
NCI-H226 = test: Growth inhibition of human NCI-H226 cells incubated for 48 hrs by sulforhodamine B assay; details: NCI-H226, 48 h
NCI-H23 = test: Growth inhibition of human NCI-H23 cells incubated for 48 hrs by sulforhodamine B assay; details: NCI-H23, 48 h
NCI-H322M = test: Growth inhibition of human NCI-H322M cells incubated for 48 hrs by sulforhodamine B assay
NCI-H460 = test: Growth inhibition of human NCI-H460 cells incubated for 48 hrs by sulforhodamine B assay; details: NCI-H460, 48 h
COLO 205 = test: Growth inhibition of human COLO205 cells incubated for 48 hrs by sulforhodamine B assay; details: COLO 205, 48 h
HCT-15 = test: Growth inhibition of human HCT15 cells incubated for 48 hrs by sulforhodamine B assay; details: HCT-15, 48 h, read-out: LC50 (the source's name)
SW-620 = test: Growth inhibition of human SW620 cells incubated for 48 hrs by sulforhodamine B assay; details: SW-620, 48 h
SF-268 = test: Growth inhibition of human SF268 cells incubated for 48 hrs by sulforhodamine B assay; details: SF-268, 48 h
SF-295 = test: Growth inhibition of human SF295 cells incubated for 48 hrs by sulforhodamine B assay; details: SF-295, 48 h
SF-539 = test: Growth inhibition of human SF539 cells incubated for 48 hrs by sulforhodamine B assay; details: SF-539, 48 h
SNB-19 = test: Growth inhibition of human SNB19 cells incubated for 48 hrs by sulforhodamine B assay; details: SNB-19, 48 h
U-251 = test: Growth inhibition of human U251 cells incubated for 48 hrs by sulforhodamine B assay; details: U-251, 48 h
Malme-3M = test: Growth inhibition of human MALME-3M cells incubated for 48 hrs by sulforhodamine B assay
MDA-MB-435 = test: Growth inhibition of human MDA-MB-435 cells incubated for 48 hrs by sulforhodamine B assay; details: MDA-MB-435, 48 h
SK-MEL-2 = test: Growth inhibition of human SK-MEL-2 cells incubated for 48 hrs by sulforhodamine B assay; details: SK-MEL-2, 48 h
SK-MEL-28 = test: Growth inhibition of human SK-MEL-28 cells incubated for 48 hrs by sulforhodamine B assay; details: SK-MEL-28, 48 h
SK-MEL-5 = test: Growth inhibition of human SK-MEL-5 cells incubated for 48 hrs by sulforhodamine B assay; details: SK-MEL-5, 48 h
IGROV-1 = test: Growth inhibition of human IGROV1 cells incubated for 48 hrs by sulforhodamine B assay; details: IGROV-1, 48 h
OVCAR-3 = test: Growth inhibition of human OVCAR3 cells incubated for 48 hrs by sulforhodamine B assay; details: OVCAR-3, 48 h
OVCAR-5 = test: Growth inhibition of human OVCAR5 cells incubated for 48 hrs by sulforhodamine B assay; details: OVCAR-5, 48 h
NCI/ADR-RES = test: Growth inhibition of human NCI/ADR-RES cells incubated for 48 hrs by sulforhodamine B assay; details: read-out: LC50 (the source's name)
SK-OV-3 = test: Growth inhibition of human SKOV3 cells incubated for 48 hrs by sulforhodamine B assay; details: SK-OV-3, 48 h
786-0 = test: Growth inhibition of human 786-0 cells incubated for 48 hrs by sulforhodamine B assay; details: 786-0, 48 h
RXF 393 = test: Growth inhibition of human RXF393 cells incubated for 48 hrs by sulforhodamine B assay; details: RXF 393, 48 h
SN12C = test: Growth inhibition of human SN12C cells incubated for 48 hrs by sulforhodamine B assay
TK-10 = test: Growth inhibition of human TK10 cells incubated for 48 hrs by sulforhodamine B assay; details: TK-10, 48 h
PC-3 = test: Growth inhibition of human PC3 cells incubated for 48 hrs by sulforhodamine B assay; details: PC-3, 48 h
DU-145 = test: Growth inhibition of human DU145 cells incubated for 48 hrs by sulforhodamine B assay; details: DU-145, 48 h
MCF7 = test: Growth inhibition of human MCF7 cells incubated for 48 hrs by sulforhodamine B assay; details: MCF7, 48 h
T47D = test: Growth inhibition of human T47D cells incubated for 48 hrs by sulforhodamine B assay
MDA-MB-468 = test: Growth inhibition of human MDA-MB-468 cells incubated for 48 hrs by sulforhodamine B assay; details: MDA-MB-468, 48 h
[1] = read-out: LC50 (the source's name)

Compound: COc1cccc2c1C(=O)c1c(O)c3c(c(O)c1C2=O)C[C@@](O)(C(=O)CO)C[C@@H]3O[C@H]1C[C@H](N)[C@H](O)[C@H](C)O1 [DOXORUBICIN]
- GI50 (CCRF-CEM): 80 nM
- GI50 (HL-60(TB)): 120 nM
- GI50 (MOLT-4): 30 nM
- CC50 (MOLT-4; [1]): 100000 nM
- GI50 (EKVX): 410 nM
- GI50 (HOP-62): 70 nM
- GI50 (HOP-92): 100 nM
- GI50 (NCI-H226): 50 nM
- CC50 (NCI-H226; [1]): 6400 nM
- GI50 (NCI-H23): 150 nM
- GI50 (NCI-H322M): 540 nM
- GI50 (NCI-H460): 20 nM
- GI50 (COLO 205): 180 nM
- CC50 (HCT-15): 100000 nM
- GI50 (SW-620): 90 nM
- GI50 (SF-268): 100 nM
- GI50 (SF-295): 100 nM
- GI50 (SF-539): 120 nM
- GI50 (SNB-19): 40 nM
- GI50 (U-251): 40 nM
- GI50 (Malme-3M): 120 nM
- GI50 (MDA-MB-435): 250 nM
- GI50 (SK-MEL-2): 210 nM
- CC50 (SK-MEL-2; [1]): 15900 nM
- GI50 (SK-MEL-28): 80 nM
- CC50 (SK-MEL-28; [1]): 490 nM
- GI50 (SK-MEL-5): 140 nM
- CC50 (SK-MEL-5; [1]): 8150 nM
- GI50 (IGROV-1): 170 nM
- CC50 (IGROV-1; [1]): 100000 nM
- GI50 (OVCAR-3): 390 nM
- GI50 (OVCAR-5): 410 nM
- CC50 (OVCAR-5; [1]): 100000 nM
- CC50 (NCI/ADR-RES): 100000 nM
- GI50 (SK-OV-3): 220 nM
- CC50 (SK-OV-3; [1]): 100000 nM
- GI50 (786-0): 130 nM
- GI50 (RXF 393): 100 nM
- GI50 (SN12C): 70 nM
- GI50 (TK-10): 380 nM
- GI50 (PC-3): 320 nM
- GI50 (DU-145): 110 nM
- CC50 (DU-145; [1]): 100000 nM
- GI50 (MCF7): 40 nM
- GI50 (T47D): 60 nM
- GI50 (MDA-MB-468): 50 nM
